{"source": "patent US20120035161A1", "about": "“Novel Compositions and Methods of Treating Diseases Using the Same” (CORRIDOR PHARMACEUTICALS, INC., priority 2006, published 2012)", "key": {"[1]": {"system": "Aspergillus fumigatus-based mouse asthma model", "experiment": "Aspergillus fumigatus-based mouse asthma model, lung resistance", "assay_type": "in vivo", "conditions": "20 mg/ml, intraperitoneally", "procedure": "Compounds of the invention were also tested for efficiacy in an asthma model.\nA cohort of mice was administered intraperitoneal injections of Aspergillus fumigatus on days 0, 14, 26, 27, and 28. Lung resistance was tested on day 29 immediately following a tracheotomy/methacholine procedure. Animals receiving dexamethasone were administered dexamethasone on days 26, 27 and 28. Animals receiving a compound of the invention were administered the compound just hours before the lung resistance test. As a control, all test compounds, as well as dexamethasone, were also administered to mice in the absence of an A. fumigatus insult."}, "[2]": {"system": "Serotonin (5-Hydroxytryptamine) 5-HT1, Non-Selective", "experiment": "Assay 271000 radioligand binding, 5-HT1 non-selective", "set-up": "species or system Wistar Rat", "procedure": "(§1) The methods employed in this study have been adapted from the scientific literature to maximize reliability and reproducibility. Reference standards were run as an integral part of each assay to ensure the validity of the results obtained. Assays were performed under conditions as described below. Where presented, IC50 values were determined by a non-linear, least squares regression analysis using the Data Analysis Toolbox (MDL Information Systems, San Leandro, Calif., USA). Where inhibition constants (Ki) are presented, the Ki values were calculated using the equation of Cheng and Prusoff (Cheng, Y., Prusoff, W. H., Biochem. Pharmacol. 22:3099-3108, 1973) using the observed IC50 of the tested compound, the concentration of radioligand employed in the assay, and historical values for the KD of the ligand. Where presented, the Hill coefficient (nu), defining the slope of the competitive binding curve, was calculated using the Data Analysis Toolbox."}, "[3]": {"target": "T1, Serotonin (5-Hydroxytryptamine) 5-HT1A (Homo sapiens, UniProt P08908)", "T1 construct": "expressed in transfected cells; host or cells: CHO cells", "T1 sequence (P08908 1-422)": "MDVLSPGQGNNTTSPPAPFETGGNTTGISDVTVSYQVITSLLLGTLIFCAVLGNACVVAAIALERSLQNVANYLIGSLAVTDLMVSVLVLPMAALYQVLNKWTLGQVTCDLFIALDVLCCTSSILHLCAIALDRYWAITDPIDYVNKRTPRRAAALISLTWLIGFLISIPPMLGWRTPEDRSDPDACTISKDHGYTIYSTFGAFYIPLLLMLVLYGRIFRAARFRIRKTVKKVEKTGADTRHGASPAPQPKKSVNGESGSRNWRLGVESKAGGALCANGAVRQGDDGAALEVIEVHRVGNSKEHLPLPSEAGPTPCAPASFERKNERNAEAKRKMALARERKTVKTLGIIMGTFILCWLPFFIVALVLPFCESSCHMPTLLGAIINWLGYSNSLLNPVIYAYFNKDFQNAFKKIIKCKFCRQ", "experiment": "Radioligand binding, 5-HT1A ([3H] 8-OH-DPAT)", "procedure": "as §1"}, "[4]": {"target": "T2, Serotonin (5-Hydroxytryptamine) 5-HT1B (Rattus norvegicus, UniProt P28564)", "T2 construct": "from tissue", "T2 sequence (P28564 whole entry)": "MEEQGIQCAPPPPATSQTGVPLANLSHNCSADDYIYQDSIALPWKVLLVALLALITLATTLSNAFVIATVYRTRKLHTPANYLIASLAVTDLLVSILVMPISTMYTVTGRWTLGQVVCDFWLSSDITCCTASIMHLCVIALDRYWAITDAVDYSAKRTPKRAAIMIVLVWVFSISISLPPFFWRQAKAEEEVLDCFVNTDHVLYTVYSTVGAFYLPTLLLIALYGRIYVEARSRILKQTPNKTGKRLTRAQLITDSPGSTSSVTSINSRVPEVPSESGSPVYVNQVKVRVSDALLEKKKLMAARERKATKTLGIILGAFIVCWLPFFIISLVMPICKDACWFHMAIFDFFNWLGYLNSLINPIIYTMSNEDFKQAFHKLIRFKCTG", "experiment": "Assay 271200 radioligand binding, 5-HT1B", "set-up": "species or system Wistar Rat", "procedure": "as §1"}, "[5]": {"system": "Serotonin (5-Hydroxytryptamine) 5-HT2, Non-Selective", "experiment": "Assay 271600 radioligand binding, 5-HT2 non-selective", "set-up": "species or system Wistar Rat", "procedure": "as §1"}, "[6]": {"system": "Monocrotaline model of pulmonary arterial hypertension", "experiment": "Monocrotaline model of pulmonary arterial hypertension (PAH)", "assay_type": "in vivo, Sprague-Dawley rats", "procedure": "Adult male Sprague-Dawley rats (287±4 g) were obtained from Charles River Laboratories (Raleigh, N.C.). Animals housed individually in a temperature/humidity controlled room with 12-hour light/dark cycles had free access to water and food and were acclimated for one week prior to the study. All experimental protocols were approved by the University of Illinois at Chicago Care and Use Committee, and all experiments were conducted in accordance with the NIH guidelines for animal welfare.\nRats were randomly assigned to one of five experimental groups (n=10 per group). Rats in groups 1 and 2 served as healthy controls; the remaining rats were injected subcutaneously on Day 0 with 60 mg/kg body weight monocrotaline, the toxic alkaloid of C. spectabilis (dissolved in DMSO at a concentration of 60 mg/mL, Sigma Aldrich, St. Louis, Mo.). On days 1-21, rats were dosed via oral gavage (2 mL/kg) with vehicle (PBS), or ICI-735 at 1 mg/kg or 10 mg/kg. Rats were weighed daily, and the dosages were adjusted appropriately. […]\nAfter the lungs were harvested, they were instilled with 10% neutral buffered formalin and immersed in the same fixative. The left and right caudal lung lobes were trimmed to produce six transverse samples per rat and these samples were routinely processed and embedded in paraffin blocks. Sections (approximately 5 μm thick) were stained with Verhoeff's elastin/eosin stain and examined by light microscopy, Histopathological findings were classified as: 1-alveolar inflammation and septal remodeling, 2-perivascular inflammation and edema, 3-perivascular fibrosis, and 4-arteriolar medial hypertrophy. The findings were graded by a pathologist without knowledge of treatment group assignment as 0 (not present), 1 (minimal), 2 (mild), 3 (moderate), or 4 (marked).\nThe distribution of each finding, if present was classified as multifocal or diffuse. The degree of muscularization of small peripheral pulmonary arteries was assessed by examination of sections immunohistochemically reacted with an anti-alpha-smooth muscle actin antibody (rabbit polyclonal ab5694 diluted 1:100, Abeam, Cambridge, Mass.). […]"}, "[7]": {"conditions": "MCT + 1 mg/kg ICI-735, 21 days, n = 10"}, "[8]": {"conditions": "MCT + 10 mg/kg ICI-735, 21 days, n = 10"}, "[9]": {"conditions": "MCT rats, daily oral 10 mg/kg for 21 days, p<0.05"}, "[10]": {"conditions": "SI + 10 mg/kg ICI-735, 21 days, n = 10"}}}
{"smiles": "NCC(=O)NCCN1CCN(CCCN2c3ccccc3Sc3ccc(C(F)(F)F)cc32)CC1", "note": "[ICI-735]", "values": [{"measurement": "Lung resistance", "setting": "[1]; A. fumigatus insult, day 29", "value": 8.5, "unit": "cm H2O/ml/s"}, {"measurement": "decreasing lung resistance compared with dexamethasone", "setting": "[1]", "value": "at least as effective as dexamethasone"}, {"measurement": "% INHIBITION", "setting": "[2]; 0.1 μM", "value": 16, "unit": "%"}, {"measurement": "% INHIBITION", "setting": "[2]; 10 μM", "value": 63, "unit": "%"}, {"measurement": "inhibition at 0.1 µM", "setting": "[3]; 0.1 μM", "value": 14, "unit": "%"}, {"measurement": "inhibition at 10 µM", "setting": "[3]; 10 μM", "value": 89, "unit": "%"}, {"measurement": "inhibition at 0.1 µM", "setting": "[4]; 0.1 μM", "value": 13, "unit": "%"}, {"measurement": "inhibition at 10 µM", "setting": "[4]; 10 μM", "value": 86, "unit": "%"}, {"measurement": "% INHIBITION", "setting": "[5]; 0.1 μM", "value": 62, "unit": "%"}, {"measurement": "% INHIBITION", "setting": "[5]; 10 μM", "value": 91, "unit": "%"}, {"measurement": "physical or behavioral drug-related toxicity, daily clinical evaluation", "setting": "[6]; 1 or 10 mg/kg oral, 21 days", "value": "no evidence"}, {"measurement": "Incidence: Alveolar inflammation/septal remodeling, severity score 1", "setting": "[6]; [7]", "value": 3}, {"measurement": "Incidence: Alveolar inflammation/septal remodeling, severity score 2", "setting": "[6]; [7]", "value": 4}, {"measurement": "Incidence: Alveolar inflammation/septal remodeling, severity score 3", "setting": "[6]; [7]", "value": 1}, {"measurement": "Incidence: Alveolar inflammation/septal remodeling, severity score 4", "setting": "[6]; [7]", "value": 2}, {"measurement": "Incidence: Arteriolar medial hypertrophy, severity score 1", "setting": "[6]; [7]", "value": 1}, {"measurement": "Incidence: Arteriolar medial hypertrophy, severity score 2", "setting": "[6]; [7]", "value": 6}, {"measurement": "Incidence: Arteriolar medial hypertrophy, severity score 3", "setting": "[6]; [7]", "value": 3}, {"measurement": "Incidence: Perivascular flbrosis, severity score 0", "setting": "[6]; [7]", "value": 2}, {"measurement": "Incidence: Perivascular flbrosis, severity score 1", "setting": "[6]; [7]", "value": 5}, {"measurement": "Incidence: Perivascular flbrosis, severity score 2", "setting": "[6]; [7]", "value": 3}, {"measurement": "Incidence: Perivascular inflammation/edema, severity score 1", "setting": "[6]; [7]", "value": 4}, {"measurement": "Incidence: Perivascular inflammation/edema, severity score 2", "setting": "[6]; [7]", "value": 5}, {"measurement": "Incidence: Perivascular inflammation/edema, severity score 3", "setting": "[6]; [7]", "value": 1}, {"measurement": "Incidence: Alveolar inflammation/septal remodeling, severity score 1", "setting": "[6]; [8]", "value": 6}, {"measurement": "Incidence: Alveolar inflammation/septal remodeling, severity score 2", "setting": "[6]; [8]", "value": 3}, {"measurement": "Incidence: Alveolar inflammation/septal remodeling, severity score 3", "setting": "[6]; [8]", "value": 1}, {"measurement": "Incidence: Arteriolar medial hypertrophy, severity score 0", "setting": "[6]; [8]", "value": 3}, {"measurement": "Incidence: Arteriolar medial hypertrophy, severity score 1", "setting": "[6]; [8]", "value": 5}, {"measurement": "Incidence: Arteriolar medial hypertrophy, severity score 2", "setting": "[6]; [8]", "value": 2}, {"measurement": "Incidence: Perivascular flbrosis, severity score 0", "setting": "[6]; [8]", "value": 7}, {"measurement": "Incidence: Perivascular flbrosis, severity score 1", "setting": "[6]; [8]", "value": 3}, {"measurement": "Incidence: Perivascular inflammation/edema, severity score 1", "setting": "[6]; [8]", "value": 8}, {"measurement": "Incidence: Perivascular inflammation/edema, severity score 2", "setting": "[6]; [8]", "value": 2}, {"measurement": "effects of MCT on PAP, RVSP and RV/BW", "setting": "[6]; MCT rats, 1 mg/kg", "value": "did not attenuate"}, {"measurement": "incidences and severities of perivascular fibrosis and arteriolar medial hypertrophy", "setting": "[6]; MCT rats, 10 mg/kg", "value": "marked decrease"}, {"measurement": "severities of alveolar inflammation and septal remodeling, and perivascular inflammation and edema", "setting": "[6]; MCT rats, 10 mg/kg, compared to MCT/vehicle", "value": "clearly diminished"}, {"measurement": "reduction of MCT-induced elevation of PAP", "setting": "[6]; [9]", "value": 75, "unit": "%"}, {"measurement": "reduction of MCT-induced elevation of RV/BW", "setting": "[6]; [9]", "value": 81, "unit": "%"}, {"measurement": "reduction of MCT-induced elevation of RVSP", "setting": "[6]; [9]", "value": 78, "unit": "%"}, {"measurement": "degree of muscularization of pulmonary arterioles compared with SI/vehicle controls", "setting": "[6]; MCT rats, high-dose", "value": "no significant differences"}, {"measurement": "Incidence: Alveolar inflammation/septal remodeling, severity score 0", "setting": "[6]; [10]", "value": 1}, {"measurement": "Incidence: Alveolar inflammation/septal remodeling, severity score 1", "setting": "[6]; [10]", "value": 9}, {"measurement": "Incidence: Arteriolar medial hypertrophy, severity score 0", "setting": "[6]; [10]", "value": 10}, {"measurement": "Incidence: Perivascular flbrosis, severity score 0", "setting": "[6]; [10]", "value": 10}, {"measurement": "Incidence: Perivascular inflammation/edema, severity score 0", "setting": "[6]; [10]", "value": 4}, {"measurement": "Incidence: Perivascular inflammation/edema, severity score 1", "setting": "[6]; [10]", "value": 5}, {"measurement": "Incidence: Perivascular inflammation/edema, severity score 2", "setting": "[6]; [10]", "value": 1}, {"measurement": "changes in PAP, RVSP or RV/BW compared with vehicle controls", "setting": "[6]; SI rats, 10 mg/kg", "value": "no changes"}, {"measurement": "Mean arterial pressure (MAP) compared with controls", "setting": "[6]; all ICI-735-treated groups", "value": "unmodified"}, {"measurement": "heart rate (HR) compared with controls", "setting": "[6]; all ICI-735-treated groups", "value": "unmodified"}]}
